From patent US20240246905A1 (University of Leicester, priority 2021, published 2024)
In brackets after ≈: the same amount, converted by molar mass.

Tests used:
MRSA 252 [1] = test: Resistance testing by serial passaging; assay type: cell-based, S. aureus; conditions: 18 serial passage cycles
Procedure: Next a serial passage study was undertaken in order to elucidate the speed at which target bacteria might either evolve resistance or select for persister cells within that population following exposure to compound 36.
For resistance development by serial passaging, 5 μL of overnight cultured MRSA 252 cells were added to individual wells in a 96-well plate containing 195 μL of TSB supplemented with a range of antibiotic concentrations and incubated at 37° C. for 18 hours. Ofloxacin served as a control. Wells where bacterial growth was visible after 18 hours were plated on TSA plates and incubated at 37° C. for a further 18 hours. Single colonies obtained from the overnight cultured bacteria were then inoculated into fresh TSB medium, incubated at 37° C. for 18 hours before being used in the next cycle of the resistance testing. This process continued for 18 cycles.

MRSA 252 [2] = test: LIVE/DEAD assay (SYTO 9 / propidium iodide); assay type: cell-based, S. aureus; conditions: 4×MIC
Procedure: To attempt to further confirm whether the membrane was indeed targeted by compound 41, a LIVE/DEAD assay was performed, in which MRSA 252 was inoculated with two dyes: SYTO 9 and propidium iodide (PI). Cells with compromised membranes will stain fluorescent red whilst those cells with intact membranes will stain fluorescent green. […] Contrary to this, cells with no antibiotic present stained fluorescent green (FIG. 7).
The LIVE/DEAD BacLight™ bacterial viability kit was purchased from Thermo Fischer Scientific and the assay was performed per manufactures instructions. The kit provides two nucleic acid stains; SYTO-9 and propidium iodide (PI), which allows live bacteria with intact membranes to be distinguished from bacteria with compromised membranes. Single colonies of MRSA 252 were added to individual wells containing Melinex® films and 3 mL TSB and incubated at 37° C. for 18 hours with minimal agitation (70 rpm). The growth media was then exposed to the antibiotics at various concentrations and incubated for 10 hours. The medium was then discarded in each well, washed with PBS before 200 μL of a solution containing both nucleic acid stains was added (50 μL of each component in 10 mL PBS) and left to incubate in the dark for 15 minutes at room temperature. […]

[3] = test system: late-exponential phase MRSA 252; test: Time-kill assay; assay type: cell-based, S. aureus
Procedure: Investigations into the precise mode of action of these compounds was next studies, with time-kill assays, resistance studies, live-dead stain and morphological analysis of bacteria exposed to the compounds providing an insight into the specific mode of action. Time-kill assays were used to evaluate whether the compounds were bacteriostatic or bactericidal.
The mode of inhibitory action of our novel class of compounds was determined by measuring the decrease in CFU over time. […] The pellets were re-suspended in TSB with the antibiotic added at 2× and 4×MIC and incubated at 37° C. Bacterial suspensions mixed with 1 M saline served as a control. […]

S. aureus AS 68 biofilm = test: Biofilm eradication, 24 hour old biofilms, crystal violet; assay type: cell-based
Procedure: The attenuation of biomass by the lead compounds in the 24 hour old biofilms was measured by crystal violet stain assay. […] Further assays were performed to study the biofilm attenuation properties of compound 41. At concentrations, as low as 2 μg/ml (the lowest concentration tested), there was still an 86% reduction of the biofilm depth (FIG. 4).
Eradication: To develop biofilms, 2.5 μL of an overnight culture of bacteria was added to individual wells in a 96-well plate each containing 100 μL TSB supplemented with 0.5% glucose and incubated at 37° C. for 24 hours. Following this, the medium in each well was first discarded and washed once with PBS before set concentrations of antibiotic was added and incubated at 37° C. for a further 18 hours. The medium in each well was then discarded, washed 4× with PBS before 150 μL 1% crystal violet was added and the plate was left to incubate at room temperature for a further 30 minutes. Following incubation, the medium in each well was first discarded before being washed 4× with PBS. 200 μL 7% acetic acid was then added and the wells were measured at OD595.

E. coli strain DH5a = test: MIC with and without outer membrane permeabilisation; assay type: cell-based; conditions: Escherichia coli
Procedure: Antibiotic MIC's were determined by a broth micro-dilution method according to Clinical Standard Laboratory Institute (CSLI) Guidelines (2017). Briefly, 96-well microplates, each containing 195 μL of the 1:2 dilution antibiotic in TSB, were inoculated with 5 μL of overnight cultured bacteria, diluted to give a starting bacterial concentration of 5×10^5 CFU/mL. The optical density of each well inoculated was recorded every 12 minutes over an 18 hour period at 37° C. The data from this was plotted in OriginPro8 (OriginLab) and sigmoidal curves fitted using the dose response function. Fitted values for each curve were used to calculate the MIC.

S. aureus SH1000 cells = test: Potassium leakage detection; assay type: cell-based; conditions: 60 minutes, MRSA cells
Procedure: The potassium leakage of S. aureus SH1000 cells exposed to compounds was conducted as per previously published methods. Briefly, compounds were incubated with mid-exponential-phase S. aureus SH1000 cells in HEPES buffer (˜10^8 CFU/ml) for 60 minutes. Cells were then removed by centrifugation, and the supernatant was assayed for K^+ efflux by using a Perkin-Elmer 11001B atomic absorption instrument in flame emission mode (wavelength, 766.5 nm; slit, 0.7 nm high; air-acetylene flame). Prior to measurements, the instrument was calibrated using analytical grade potassium standards.

MRSA 252 [4] = test: MIC before and after cysteine addition; assay type: cell-based, S. aureus; conditions: up to 24 hours
Text: It is well known that compounds bearing an isocyanide group are usually highly reactive, capable of reacting with electrophiles, nucleophiles and radicals.^(30) As a result, it was important to identify any stability issues which might be encountered by the lead compounds, both in storage and in the presence of glutathione and cysteine. […] Another common feature of the lead compounds is the vinyl fragment. It was hypothesized that the presence of glutathione and cysteine found in eukaryotic cells could potentially interact with the electrophilic alkene group in the compounds, thus shutting down their antibiotic activity. To probe this potentially detrimental in vivo process, compound 39 was subjected to glutathione for up to 24 hours whilst compound 41 was added to cysteine for the same length of time.

Galleria mellonella = test: Systemic toxicity, Galleria mellonella survival; conditions: n = 10, injection of 500 μg/mL
Procedure: Galleria mellonella wax worms purchased from www.livefoods.co.uk were inoculated with 10 μL of a series of dilutions of the antibiotics synthesised in-house. The antibiotic concentrations chosen for this study were the following: 1000 μg/mL, 500 μg/mL, 250 μg/mL, 125 μg/mL and 31.25 μg/mL. Each dilution was injected into 10 individual wax worms through their last pro-leg. The injected wax worms were stored at 25° C. for 5 days. The cytotoxicity was determined as the percentage survival rate of Galleria mellonella Wax worms after 5 days inoculation.

## [C-]#[N+]/C=C/c1ccc(O)cc1/C=C/c1ccccc1 [Compound 36, 4-((E Z)-2-Isocyanovinyl)-3-((E)-styryl)phenol]
MRSA 252 [1]
  change of MIC after serial passage (in words): no increase in the MIC

## [C-]#[N+]/C=C/c1ccc(NC(C)=O)cc1/C=C/c1ccccc1 [Compound 41, N-(4-((E)-2-Isocyanovinyl)-3-((E)-styryl)phenyl)acetamide]
MRSA 252 [2]
  membrane integrity (LIVE/DEAD stain): significant membrane damage
[3]; 20 hours exposure, 2×MIC, MRSA 252 in TSB
  reduction in bacterial density: 4 log
[3]; late-exponential phase MRSA 252
  bacteriostatic or bactericidal: bactericidal activity
S. aureus AS 68 biofilm; S. aureus AS 68, 2 μg/ml (the lowest concentration tested)
  reduction of the biofilm depth: 86%
S. aureus AS 68 biofilm; S. aureus AS 68, 50 μg/mL, crystal violet
  attenuation of biomass in 24 hour old biofilms: significant attenuation in biomass
E. coli strain DH5a; not permeabilised
  MIC: 280 µg/mL (≈ 971 µM)
E. coli strain DH5a; outer membrane permeabilised with polymixin B nanopeptides
  MIC: 16 µg/mL (≈ 55.5 µM)
S. aureus SH1000 cells
  dissipation of cellular K+ ions: 50%
MRSA 252 [4]
  MIC in the presence of cysteine: remained unaffected

## (2-Isocyanovinyl)-4-acetaamido benzene [Compound 22]
Galleria mellonella
  % survival after 5 days: 70%
